Results published in patent publication US12492173B2, “Herbicidal substituted N-tetrazolyl aryl carboxamides” (Bayer Aktiengesellschaft, priority 2019, dated 2025).

Tests used:
Assay type in all cases: in vivo
[1] = system: Lolium multiflorum; test: Pre-emergence herbicidal action, LOLMU; settings: for herbicidal activity LOLMU: dosage 320 g/ha, scored visually after 3 weeks vs untreated controls (100% = plants have died)
In short: (§1)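 Pre-emergence soil spray over sandy loam-covered seeds; greenhouse 3 weeks; % visual damage (0% = control, 100% = dead).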

[2] = system: Pharbitis purpurea; test: Pre-emergence herbicidal action, PHBPU; settings: for herbicidal activity PHBPU: dosage 320 g/ha, scored visually after 3 weeks vs untreated controls (100% = plants have died)
In short: as §1

[3] = system: Lolium multiflorum; test: Post-emergence herbicidal action, LOLMU; parameters: key: % herbicidal action: 100 = plants died, 0 = like control
Procedure: [table] 2. Post-Emergence Herbicidal Action Against Harmful Plants Seeds of monocotyledonous and dicotyledonous weed and crop plants are laid out in sandy loam soil in wood-fiber pots, covered with soil and cultivated in a greenhouse under good growth conditions. 2 to 3 weeks after sowing, the test plants are treated at the one-leaf stage. The compounds of the invention, formulated in the form of wettable powders (WP) or as emulsion concentrates (EC), are then sprayed onto the green parts of the plants in the form of an aqueous suspension or emulsion at a water application rate equating to 600 to 800 l/ha, with addition of 0.2% wetting agent. After the test plants have been left to stand in the greenhouse under optimal growth conditions for about 3 weeks, the action of the preparations is assessed visually in comparison to untreated controls (herbicidal action in percent (%): 100% activity=the plants have died, 0% activity=like control plants). […] The tables below illustrate, in an exemplary manner, the post-emergence herbicidal action of the compounds according to the invention, the herbicidal activity being stated in percent. In the experiments that follow, herbicidal action of numerous inventive compounds and the known compounds that are structurally closest from D1 (WO 2012/028579 A1) and D2 (WO 2018/202535 A1) were compared under the above-specified conditions by the pre-emergence and post-emergence method. The example numbers given in the tables relate to the compounds disclosed in the respective documents. In addition to the compounds disclosed in D1 and D2, the following compounds V-1 to V-14 that are encompassed by D1 or D2 but are not compounds specified therein were used in the comparative experiments: • V-1: 2-(methylsulfanyl)-3-(methylsulfinyl)-N-(1-methyl-1H-tetrazol-5-yl)-4-(trifluoromethyl)benzamide • V-2: 2-(methylsulfanyl)-3-(methylsulfonyl)-N-(1-methyl-1H-tetrazol-5-yl)-4-(trifluoromethyl)benzamide • V-3: 2,3-bis(ethylsulfanyl)-N-(1-methyl-1H-tetrazol-5-yl)-4-(trifluoromethyl)benzamide • V-4: 2-chloro-3-(ethylsulfanyl)-N-(1-methyl-1H-tetrazol-5-yl)-4-(trifluoromethyl)benzamide • V-5: 2-chloro-4-iodo-3-(methylsulfanyl)-N-(1-methyl-1H-tetrazol-5-yl)benzamide • V-6: 2-chloro-4-iodo-3-(methylsulfinyl)-N-(1-methyl-1H-tetrazol-5-yl)benzamide • V-7: 2-chloro-4-iodo-3-(methylsulfonyl)-N-(1-methyl-1H-tetrazol-5-yl)benzamide • V-8: 2-bromo-3-(methylsulfanyl)-N-(1-methyl-1H-tetrazol-5-yl)-4-(trifluoromethyl)benzamide • V-9: 2-bromo-3-(methylsulfinyl)-N-(1-methyl-1H-tetrazol-5-yl)-4-(trifluoromethyl)benzamide • V-10: 2-bromo-3-(methylsulfonyl)-N-(1-methyl-1H-tetrazol-5-yl)-4-(trifluoromethyl)benzamide • V-11: 2-bromo-3-(ethylsulfanyl)-N-(1-methyl-1H-tetrazol-5-yl)-4-(trifluoromethyl)benzamide • V-12: 2-bromo-3-(ethylsulfinyl)-N-(1-methyl-1H-tetrazol-5-yl)-4-(trifluoromethyl)benzamide • V-13: 2-bromo-3-(ethylsulfonyl)-N-(1-methyl-1-1H-tetrazol-5-yl)-4-(trifluoromethyl)benzamide • V-14: 2-cyclopropyl-3-(ethylsulfanyl)-N-(1-methyl-1H-tetrazol-5-yl)-4-(trifluoromethyl)benzamide Herbicidal Pre-Emergence Action: […]

[4] = system: Cyperus esculentus; test: Pre-emergence herbicidal action, CYPES; parameters: key: % activity: 100 = plants have died, 0 = like control plants; settings: comparative experiment, 20 g of a.i./ha
In short: as §1

[5] = system: Veronica persica; test: Pre-emergence herbicidal action, VERPE; settings: dosage 320 g/ha, scored visually after 3 weeks vs untreated controls (100% = plants have died)
In short: as §1

[6] = system: Cyperus esculentus; test: Post-emergence herbicidal action, CYPES; parameters: key: % herbicidal action vs untreated; 100 = plants died, 0 = like control; settings: for Herbicidal action against CYPES: comparative experiment, 5 g of a.i./ha
In short: (§2)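 Greenhouse post-emergence test: weeds sown in sandy loam were sprayed once at one leaf, 2 to 3 weeks from sowing, with aqueous WP or EC preparations carrying 0.2% wetting agent. Effect is scored visually after about 3 weeks.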

[7] = system: Setaria viridis; test: Post-emergence herbicidal action, SETVI; parameters: key: % herbicidal action vs untreated; 100 = plants died, 0 = like control
In short: as §2

[8] = comparative experiment, 20 g of a.i./ha

Cn1nnnc1NC(=O)c1ccc(C(F)(F)F)c(C[S+](C)[O-])c1Cl (racemic) [Example 1-297]
Herbicidal action against LOLMU [1, 8]: 30 | herbicidal activity LOLMU [1]: 100% | herbicidal activity PHBPU [2]: 90% | herbicidal action LOLMU ([3]; post-emergence, dosage 80 g/ha): 100% | Herbicidal action against CYPES [4]: 100 | herbicidal activity VERPE [5]: 100% | Herbicidal action against CYPES ([6]; post-emergence): 60 | herbicidal action CYPES ([6]; post-emergence, dosage 80 g/ha): 80% | herbicidal action SETVI ([7]; post-emergence, dosage 80 g/ha): 80%

Cc1c(C(=O)Nc2nnnn2C)ccc(C(F)(F)F)c1C[S+](C)[O-] (stereo not drawn) [Example 1-84]
herbicidal activity PHBPU [2]: 80% | herbicidal action LOLMU ([3]; post-emergence, dosage 80 g/ha): 80% | herbicidal activity VERPE [5]: 100% | herbicidal action CYPES ([6]; post-emergence, dosage 80 g/ha): 80% | herbicidal action SETVI ([7]; post-emergence, dosage 80 g/ha): 100%

Cc1c(C(=O)Nc2nnnn2C)ccc(C(F)(F)F)c1CS(C)(=O)=O [Example 1-85]
herbicidal action LOLMU ([3]; Dosage 80 g/ha): 80 | herbicidal activity VERPE [5]: 100% | herbicidal action CYPES ([6]; Dosage 80 g/ha): 80 | herbicidal action SETVI ([7]; Dosage 80 g/ha): 100

COc1c(C(=O)Nc2nnnn2C)ccc(C(F)(F)F)c1CSC [Example 1-134]
Herbicidal action against PHBPU [2, 8]: 20 | herbicidal activity PHBPU [2]: 80% | Herbicidal action against CYPES [4]: 50 | herbicidal activity VERPE [5]: 100% | herbicidal action SETVI ([7]; Dosage 80 g/ha): 100 | Herbicidal action against SETVI ([7]; post-emergence, dosage 80 g/ha): 100

CSCc1c(C(F)(F)F)ccc(C(=O)Nc2nnnn2C)c1Cl [Example 1-296]
herbicidal activity LOLMU [1]: 90% | herbicidal action LOLMU ([3]; post-emergence, dosage 80 g/ha): 90% | herbicidal activity VERPE [5]: 100% | herbicidal action CYPES ([6]; post-emergence, dosage 80 g/ha): 90% | herbicidal action SETVI ([7]; post-emergence, dosage 80 g/ha): 100%

Cn1nnnc1NC(=O)c1ccc(C(F)(F)F)c(CS(C)(=O)=O)c1Cl [Example 1-298]
herbicidal activity LOLMU [1]: 90% | herbicidal activity PHBPU [2]: 90% | herbicidal action LOLMU ([3]; post-emergence, dosage 80 g/ha): 80% | Herbicidal action against CYPES [4]: 100 | herbicidal activity VERPE [5]: 100% | Herbicidal action against CYPES ([6]; post-emergence): 60 | herbicidal action CYPES ([6]; post-emergence, dosage 80 g/ha): 90% | herbicidal action SETVI ([7]; post-emergence, dosage 80 g/ha): 100%

CSCc1c(C(F)(F)F)ccc(C(=O)Nc2nnnn2C)c1Br [Example 1-380]
herbicidal activity PHBPU [2]: 80% | herbicidal action LOLMU ([3]; post-emergence, dosage 80 g/ha): 100% | Herbicidal action against CYPES [4]: 60 | herbicidal activity VERPE [5]: 100% | herbicidal action SETVI ([7]; post-emergence, dosage 80 g/ha): 90%

Cn1nnnc1NC(=O)c1ccc(C(F)(F)F)c(C[S+](C)[O-])c1Br (stereo not drawn) [Example 1-381]
herbicidal activity PHBPU [2]: 80% | herbicidal action LOLMU ([3]; post-emergence, dosage 80 g/ha): 80% | herbicidal activity VERPE [5]: 100% | herbicidal action CYPES ([6]; post-emergence, dosage 80 g/ha): 90% | herbicidal action SETVI ([7]; post-emergence, dosage 80 g/ha): 100%

CCn1nnnc1NC(=O)c1ccc(C(F)(F)F)c(CSC)c1Br [Example 2-380]
herbicidal activity PHBPU [2]: 80% | herbicidal action LOLMU ([3]; post-emergence, dosage 80 g/ha): 80% | herbicidal activity VERPE [5]: 100% | herbicidal action SETVI ([7]; post-emergence, dosage 80 g/ha): 100%

CCn1nnnc1NC(=O)c1ccc(C(F)(F)F)c(C[S+](C)[O-])c1Br (stereo not drawn) [Example 2-381]
herbicidal activity LOLMU [1]: 80% | herbicidal activity PHBPU [2]: 80% | herbicidal action LOLMU ([3]; post-emergence, dosage 80 g/ha): 80% | herbicidal activity VERPE [5]: 100% | herbicidal action SETVI ([7]; post-emergence, dosage 80 g/ha): 100%

CCSCc1c(C(F)(F)F)ccc(C(=O)Nc2nnnn2CC)c1Br [Example 2-383]
herbicidal activity LOLMU [1]: 100% | herbicidal action LOLMU ([3]; post-emergence, dosage 80 g/ha): 80% | herbicidal activity VERPE [5]: 100% | herbicidal action SETVI ([7]; post-emergence, dosage 80 g/ha): 100%
